Laboratory results from patent publication US20260297070A1, “CYCLIC [COMPOUND LEFT OUT] WRN INHIBITORS” (Nimbus Wadjet, Inc., priority 2023, published 2026).

What follows are molecules tested against T1, human Werner helicase (WRN-BV08, Uniprot Q14191, amino acids 517-1235 with L1074F point mutation) (Homo sapiens, UniProt Q14191, L1074F) (assay: WRN (BV08) ADP-Glo Assay). Details: 0.15 nM WRN, 5 μM ATP, 0.1 nM DNA duplex, 15 min preincubation, 60 min at 25° C., pH 7.5, 1% DMSO; read-out: ADP-Glo_hWRN_IC50.
T1 construct: Uniprot Q14191, amino acids 517-1235 with L1074F point mutation; TEV-cleavable 8×His (C, cleaved yes); made in house; host or cells: Sf9 insect cells (baculovirus)
T1 sequence (Q14191 with tags, fused parts or gaps L1074F limits assumed): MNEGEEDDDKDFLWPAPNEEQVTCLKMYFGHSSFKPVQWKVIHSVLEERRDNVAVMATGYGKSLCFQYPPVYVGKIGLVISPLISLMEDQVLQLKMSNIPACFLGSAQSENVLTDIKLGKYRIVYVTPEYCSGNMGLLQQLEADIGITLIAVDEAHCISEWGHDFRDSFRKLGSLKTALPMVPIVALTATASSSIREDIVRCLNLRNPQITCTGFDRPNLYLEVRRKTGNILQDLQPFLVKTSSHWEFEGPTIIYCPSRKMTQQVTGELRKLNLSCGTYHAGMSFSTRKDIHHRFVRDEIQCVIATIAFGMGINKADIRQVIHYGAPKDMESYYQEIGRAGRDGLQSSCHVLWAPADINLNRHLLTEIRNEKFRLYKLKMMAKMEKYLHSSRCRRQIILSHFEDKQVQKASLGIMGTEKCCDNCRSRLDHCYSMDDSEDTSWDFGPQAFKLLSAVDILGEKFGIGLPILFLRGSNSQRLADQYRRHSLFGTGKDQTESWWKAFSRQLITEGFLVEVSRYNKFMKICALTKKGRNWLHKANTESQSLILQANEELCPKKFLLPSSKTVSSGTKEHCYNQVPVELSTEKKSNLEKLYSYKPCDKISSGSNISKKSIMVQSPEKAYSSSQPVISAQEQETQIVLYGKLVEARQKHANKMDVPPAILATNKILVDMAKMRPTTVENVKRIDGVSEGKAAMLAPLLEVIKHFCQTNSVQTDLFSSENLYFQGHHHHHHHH
Assay type: biochemical
In short: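 0.15 nM WRN (aa 517-1235, L1074F, Sf9-expressed, tag cleaved) preincubated 15 min at 25 °C with compound, then 5 μM ATP and 0.1 nM DNA duplex added for 60 min. Buffer: 20 mM Bicine pH 7.5, 1 mM MgCl2, 10 mM KCl, 1 mM TCEP; 1% DMSO. ADP-Glo luminescence; IC50 by 4-parameter fit.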

Row | Compound | IC50 [nM]
1 | CC(C(=O)N(Cc1ccnc(C(C)(C)O)c1)[C@@H]1C=CS(=O)(=O)C1)n1cc(-c2cc(F)c(F)c(F)c2)cn1 (single isomer, unassigned) [I-789] | < 500
2 | CC(C)(O)c1cc(CN(C(=O)C(OCCC(F)(F)F)c2ccc(-c3ccc(F)c(F)c3)cc2F)[C@@H]2C=CS(=O)(=O)C2)ccn1 (single isomer, unassigned) [I-790] | 500 to 5000
3 | CC(C)(O)c1cc(CN(C(=O)Cc2ncc(-c3cc(F)c(F)c(F)c3)s2)C2C=CS(=O)(=O)C2)ccn1 (single isomer, unassigned) [I-794] | 500 to 5000
4 | CC(C)(O)c1csc(CN(C(=O)Cn2cc(-c3cc(F)c(F)c(F)c3)cn2)C2C=CS(=O)(=O)C2)n1 (single isomer, unassigned) [I-798] | < 500
5 | CC(C)(O)c1csc(CN(C(=O)Cn2cc(-c3cc(F)c(F)c(F)c3)cn2)C2C=CS(=O)(=O)C2)n1 (single isomer, unassigned) [I-799] | 500 to 5000
6 | CC(C)(O)c1cc(CN(C(=O)C(c2ccc(-c3ccc(F)c(F)c3)cc2F)n2ccnn2)[C@@H]2C=CS(=O)(=O)C2)ccn1 (single isomer, unassigned) [I-800] | < 500
7 | CC(C)(O)c1cc(CN(C(=O)C(c2ccc(-c3ccc(F)c(F)c3)cc2F)n2ccnn2)C2C=CS(=O)(=O)C2)ccn1 (single isomer, unassigned) [I-801, (2R*)-N-[(3R**)-1,1-dioxo-2,3-dihydro-1lambda6-thiophen-3-yl]-N-{[2-(2-hydroxypropan-2-yl)pyridin-4-yl]methyl}-2-(1H-1,2,3-triazol-1-yl)-2-{3,3′,4′-trifluoro-[1,1′-biphenyl]-4-yl}acetamide] | < 500
8 | CC(C)(O)c1cc(CN(C(=O)C(c2ccc(-c3ccc(F)c(F)c3)cc2F)n2ccnn2)C2C=CS(=O)(=O)C2)ccn1 (single isomer, unassigned) [I-802, (2R*)-N-[(3R**)-1,1-dioxo-2,3-dihydro-1lambda6-thiophen-3-yl]-N-{[2-(2-hydroxypropan-2-yl)pyridin-4-yl]methyl}-2-(1H-1,2,3-triazol-1-yl)-2-{3,3′,4′-trifluoro-[1,1′-biphenyl]-4-yl}acetamide] | 500 to 5000
9 | COc1cc(CN(C(=O)C(O/C=C/S(C)(=O)=O)c2ccc(-c3ccc(F)c(F)c3)cc2F)[C@@H]2C=CS(=O)(=O)C2)ccn1 (single isomer, unassigned) [I-803, (2R*)-N-[(3R)-1,1-dioxo-2,3-dihydro-1lambda6-thiophen-3-yl]-2-{[(1E)-2-methanesulfonylethenyl]oxy}-N-[(2-methoxypyridin-4-yl)methyl]-2-{3,3′,4′-trifluoro-[1,1′-biphenyl]-4-yl}acetamide] | > 50000
10 | COc1cc(CN(C(=O)C(O/C=C/S(C)(=O)=O)c2ccc(-c3ccc(F)c(F)c3)cc2F)[C@@H]2C=CS(=O)(=O)C2)ccn1 (single isomer, unassigned) [I-804, (2R*)-N-[(3R)-1,1-dioxo-2,3-dihydro-1lambda6-thiophen-3-yl]-2-{[(1E)-2-methanesulfonylethenyl]oxy}-N-[(2-methoxypyridin-4-yl)methyl]-2-{3,3′,4′-trifluoro-[1,1′-biphenyl]-4-yl}acetamide] | < 500
11 | CC(C)(O)c1cc(CN(C(=O)C(OCC(F)(F)F)c2ccc(-c3ccc(F)c(F)c3)cc2F)[C@@H]2C=CS(=O)(=O)C2)ccn1 (single isomer, unassigned) [I-805] | < 500
12 | CC(C)(O)c1cc(CN(C(=O)C2CCCc3c(-c4cc(F)c(F)c(F)c4)cnn32)[C@@H]2C=CS(=O)(=O)C2)ccn1 (single isomer, unassigned) [I-806] | 500 to 5000
13 | CC(C)(O)c1cc(CN(C(=O)C(OCCC(F)F)c2ccc(-c3ccc(F)c(F)c3)cc2F)[C@@H]2C=CS(=O)(=O)C2)ccn1 (single isomer, unassigned) [I-812] | < 500
14 | CC(C)(O)c1cc(CN(C(=O)C(OCC(F)F)c2ccc(-c3ccc(F)c(F)c3)cc2F)[C@@H]2C=CS(=O)(=O)C2)ccn1 (single isomer, unassigned) [I-813] | < 500
15 | CC(C)(O)c1cc(CN(C(=O)C(OCc2ccccc2)c2ccc(-c3ccc(F)c(F)c3)cc2F)[C@@H]2C=CS(=O)(=O)C2)ccn1 (single isomer, unassigned) [I-814] | 500 to 5000
16 | CC(C)(O)c1cc(CN(C(=O)C(OCC2CC2)c2ccc(-c3ccc(F)c(F)c3)cc2F)[C@@H]2C=CS(=O)(=O)C2)ccn1 (single isomer, unassigned) [I-815] | < 500
17 | CC(C)(O)c1cc(CN(C(=O)Cn2nc(-c3cc(F)c(F)c(F)c3)cc2N)C2C=CS(=O)(=O)C2)ccn1 (single isomer, unassigned) [I-821] | 500 to 5000
18 | COc1cc(C(C)N(C(=O)Cn2cc(-c3cc(F)c(F)c(F)c3)cn2)C2C=CS(=O)(=O)C2)ccn1 (single isomer, unassigned) [I-828, N-[(3R**)-1,1-dioxo-2,3-dihydro-1lambda6-thiophen-3-yl]-N-[(1R*)-1-(2-methoxypyridin-4-yl)ethyl]-2-[4-(3,4,5-trifluorophenyl)-1H-pyrazol-1-yl]acetamide] | 500 to 5000
19 | COc1cc(C(C)N(C(=O)Cn2cc(-c3cc(F)c(F)c(F)c3)cn2)C2C=CS(=O)(=O)C2)ccn1 (single isomer, unassigned) [I-830, N-[(3R**)-1,1-dioxo-2,3-dihydro-1lambda6-thiophen-3-yl]-N-[(1R*)-1-(2-methoxypyridin-4-yl)ethyl]-2-[4-(3,4,5-trifluorophenyl)-1H-pyrazol-1-yl]acetamide] | 5000 to 10000
20 | COc1cc(C(C)N(C(=O)Cn2cc(-c3cc(F)c(F)c(F)c3)cn2)C2C=CS(=O)(=O)C2)ccn1 (single isomer, unassigned) [I-831, N-[(3R**)-1,1-dioxo-2,3-dihydro-1lambda6-thiophen-3-yl]-N-[(1R*)-1-(2-methoxypyridin-4-yl)ethyl]-2-[4-(3,4,5-trifluorophenyl)-1H-pyrazol-1-yl]acetamide] | 500 to 5000
21 | COc1cc(CN(C(=O)C(OC2CS(=O)(=O)C2)c2ccc(-c3ccc(F)c(F)c3)cc2F)[C@@H]2C=CS(=O)(=O)C2)ccn1 (single isomer, unassigned) [I-834, (2R*)-2-[(1,1-dioxo-1lambda6-thietan-3-yl)oxy]-N-[(3R)-1,1-dioxo-2,3-dihydro-1lambda6-thiophen-3-yl]-N-[(2-methoxypyridin-4-yl)methyl]-2-{3,3′,4′-trifluoro-[1,1′-biphenyl]-4-yl}acetamide] | > 50000
22 | COc1cc(CN(C(=O)C(OC2CS(=O)(=O)C2)c2ccc(-c3ccc(F)c(F)c3)cc2F)[C@@H]2C=CS(=O)(=O)C2)ccn1 (single isomer, unassigned) [I-835, (2R*)-2-[(1,1-dioxo-1lambda6-thietan-3-yl)oxy]-N-[(3R)-1,1-dioxo-2,3-dihydro-1lambda6-thiophen-3-yl]-N-[(2-methoxypyridin-4-yl)methyl]-2-{3,3′,4′-trifluoro-[1,1′-biphenyl]-4-yl}acetamide] | 5000 to 10000
23 | Cc1cccn1-c1ccc(CC(=O)N(Cc2ccc(C(=O)N(C)Cc3cn(Cc4ccc(NC(=O)CCOCCOCCOCCOCCNC(=O)CCCC[C@@H]5SC[C@@H]6NC(=O)N[C@@H]65)cn4)nn3)cc2)C2C=CS(=O)(=O)C2)c(F)c1 (single isomer, unassigned) [II-1] | 500 to 5000
24 | CC(C)(O)c1cc(CN(C(=O)C(OCC2CC(F)(F)C2)c2ccc(-c3ccc(F)c(F)c3)cc2F)[C@@H]2C=CS(=O)(=O)C2)ccn1 (stereo in doubt) [I-792, rel-2-[(3,3-difluorocyclobutyl)methoxy]-N-[(3R)-1,1-dioxo-2,3-dihydro-1lambda6-thiophen-3-yl]-N-{[2-(2-hydroxypropan-2-yl)pyridin-4-yl]methyl}-2-{3,3′,4′-trifluoro-[1,1′-biphenyl]-4-yl}acetamide] | 500 to 5000
25 | CNC(=O)C(C(=O)N(Cc1ccnc(C(C)(C)O)c1)[C@@H]1C=CS(=O)(=O)C1)c1ccc(-c2ccc(F)c(F)c2)cc1F (some centres unmarked) [I-3, N1-(1,1-dioxido-2,3-dihydrothiophen-3-yl)-N1-((2-(2-hydroxypropan-2-yl)pyridin-4-yl)methyl)-N3-methyl-2-(3,3′,4′-trifluoro-[1,1′-biphenyl]-4-yl)malonamide] | < 500
26 | CC(C)(O)c1cc(CN(C(=O)Cn2cc(-c3ccc(F)c(F)c3)cn2)[C@@H]2C=CS(=O)(=O)C2)ccn1 [I-6, (R)-2-(4-(3,4-difluorophenyl)-1H-pyrazol-1-yl)-N-(1,1-dioxido-2,3-dihydrothiophen-3-yl)-N-((2-(2-hydroxypropan-2-yl)pyridin-4-yl)methyl)acetamide] | < 500
27 | CC(C)(O)c1cc(CN(C(=O)Cn2cc3cc(S(F)(F)(F)(F)F)ccc3n2)[C@@H]2C=CS(=O)(=O)C2)ccn1 [I-7, (R)—N-(1,1-dioxido-2,3-dihydrothiophen-3-yl)-N-((2-(2-hydroxypropan-2-yl)pyridin-4-yl)methyl)-2-(5-(pentafluoro-λ^6-sulfaneyl)-2H-indazol-2-yl)acetamide] | < 500
28 | COc1cc(CN(C(=O)[C@H](C(=O)N(C)C)c2ccc(-c3ccc(F)cc3)cc2F)[C@@H]2C=CS(=O)(=O)C2)ccn1 [I-9, (2S)-2-{3,4′-difluoro-[1,1′-biphenyl]-4-yl}-N-[(3R)-1,1-dioxo-2,3-dihydro-1lambda6-thiophen-3-yl]-N-[(2-methoxypyridin-4-yl)methyl]-N′,N′-dimethylpropanediamide] | < 500
29 | CC(C)(O)c1cc(CN(C(=O)Cn2ccc(-c3ccc(F)c(F)c3)cc2=O)[C@@H]2C=CS(=O)(=O)C2)ccn1 [I-13, (R)-2-(4-(3,4-difluorophenyl)-2-oxopyridin-1(2H)-yl)-N-(1,1-dioxido-2,3-dihydrothiophen-3-yl)-N-((2-(2-hydroxypropan-2-yl)pyridin-4-yl)methyl)acetamide] | < 500
